“And” between values parts separate entries of the source, which are not always exact repeats. Identical values can stand only once.
Tests used:
C57BL/6J DIO mice [1] = assay: Urinary albumin:creatinine ratio in DIO mice (Extended Data Fig. 2g); type: in vivo, mouse; details: 14-day treatment, 50 nmol kg−1 per day, in words
Text: Frozen urine samples from heterozygous GIPR^dn mice in a CD1 background (n = 3) served as positive controls. […] For each treatment group, uACR was computed as a ratio of urinary albumin (mg ml^−1) to urinary creatinine (mg ml^−1).

C57BL/6J DIO mice [2] = assay: Fasting blood glucose, insulin and HOMA-IR in DIO mice (Fig. 2e,f; Extended Data Fig. 3c); type: in vivo, mouse; details: for HOMA IR: Suppl. Fig. 3c
Method: (§1) Glp1r^−/− mice were kindly provided by D. Drucker (University of Toronto, Canada). All wildtype and knockout mice used in our studies were in-house bred on a C57BL/6J background. Mice were double-housed and kept in a constant environment with the ambient temperature set to 22 ± 2 °C with constant humidity (45–65%) and a 12 h/12 h light/dark cycle with lights off from 06:00 until 18:00. For studies in DIO mice, male C57BL/6J mice were fed with a high-fat diet comprising 58% kilocalories from fat (D12331, Research Diets). db/db mice were fed with a normal chow diet (T1314, Altromin GmbH) throughout the study. At the beginning of each experiment, mice were equally distributed into experimental groups according to their body weight and body composition. All animal studies were approved by the State of Bavaria, Germany, or the Insitutional Animal Care and Use Committee of the University of Cincinnati, OH, USA and conducted on the basis of the underlying animal welfare law of the respective countries. Compounds were dissolved in PBS and were s.c. administered with a volume of 5 μl g^−1 body weight in the indicated doses between 15:00 and 16:00.

C57BL/6J DIO mice [3] = assay: Chronic high-dose treatment of DIO mice (14 days, 50 nmol/kg/day): body weight, food intake, fat and lean mass (Fig. 2a–d); type: in vivo, mouse; details: individual mice
Text: Glp1r^−/− mice were kindly provided by D. Drucker (University of Toronto, Canada). All wildtype and knockout mice used in our studies were in-house bred on a C57BL/6J background. […] At the beginning of each experiment, mice were equally distributed into experimental groups according to their body weight and body composition. All animal studies were approved by the State of Bavaria, Germany, or the Insitutional Animal Care and Use Committee of the University of Cincinnati, OH, USA and conducted on the basis of the underlying animal welfare law of the respective countries. Compounds were dissolved in PBS and were s.c. administered with a volume of 5 μl g^−1 body weight in the indicated doses between 15:00 and 16:00.
Fat and lean tissue mass were measured via nuclear magnetic resonance technology (EchoMRI).

hGLP-1R [4] = target: T1, hGLP-1R (Homo sapiens, UniProt P43220); assay: Ligand-induced Mini-Gαs recruitment to hGLP-1R-GFP (BRET) in HEK293T cells; type: cell-based; details: HEK293 cells transfected with human GLP-1R; dose response, Fig. 1a; in words
T1 construct: host or cells: HEK293T, transient transfection
Method: (§2) HEK293T cells (700,000 per well) were seeded in six-well plates and incubated to 70% confluency in DMEM (10% FBS, 1% Pen/Strep). Twenty-four hours following seeding, transient transfections were performed using Lipofectamine 2000 (catalogue no. 11668019, Invitrogen) according to the manufacturer’s protocol without including additional transformation carrier DNA.
(§3) Twenty-four hours following transfection, HEK293T cells or MIN6 cells were washed with PBS and resuspended in FluoroBrite phenol red-free complete media (catalogue no. A1896701, Life Technologies) containing 5% FBS and 2 mM of L-glutamine (catalogue no. 25030081, Life Technologies). 100,000 cells per well were plated into poly-D-lysine-coated (catalogue no. P6403, Sigma-Aldrich) 96-well white polystyrene LumiNunc plates (catalogue no. 10072151, Thermo Fisher Scientific). After 24 h, the media was replaced with PBS (catalogue no. 10010056, Gibco) containing 10 μM of coelenterazine-h (catalogue no. S2011, Promega) or 1:500 dilution of NanoGlo (catalogue no. N1110, Promega). BRET measurements were taken every 30 s–2 min using a PHERAstar FS multi-mode microplate reader. […] The resulting ligand-specific ratiometric BRET signals were normalized to vehicle producing the ‘ligand-induced BRET ratio’[37], followed by an additional normalization step to well-specific baseline readings.

C57BL/6J DIO mice [5] = assay: i.p. insulin tolerance test in DIO mice (Fig. 2g,h; Extended Data Fig. 3a,b); type: in vivo, mouse; parameters: unit not given here; details: for AOC: ITT, Suppl. Fig. 3b
Method: (§4) Glucose tolerance was assessed in 6 h fasted mice after i.p injection of 1.75 g glucose per kg body weight (DIO mice). Insulin tolerance was assessed in 6 h fasted mice after i.p. injection of either 0.75 U Insulin per […] body weight (DIO mice) or 1 U Insulin per […] body weight (db/db mice) (Humalog, Eli Lilly). Tail vein blood glucose was subsequently measured using a handheld glucometer (TheraSense Freestyle) at baseline and after 15, 30, 60 and 120 min.

hGLP-1R [6] = target: T1, hGLP-1R; assay: Ligand-induced cAMP production (CAMYEL BRET sensor) in hGLP-1R+ HEK293T cells; type: cell-based; details: HEK293 cells transfected with human GLP-1R; dose response, Fig. 1b; in words
Method: as §2, §3

DIO mice = assay: Acute i.p. glucose tolerance test in DIO mice 6 h after a single s.c. dose (Fig. 3); type: in vivo, mouse; parameters: AOC: unit not given here; details: for AOC: AOC of i.p. GTT, DIO mice, 6 h after single s.c. dose, individual animals
Method: as §1, §4

hGLP-1R [7] = target: T1, hGLP-1R; assay: Ligand-induced hGLP-1R-Rluc8 internalization (loss of BRET with Venus-KRAS) in HEK293T cells; type: cell-based; details: HEK293 cells transfected with human GLP-1R; dose response, Fig. 1c; in words
Method: as §2, §3

hGLP-1R [8] = assay: Ligand-induced cAMP production (BRET) in mouse MIN6 β-cells; type: cell-based, human; details: Fig. 1e, in words
Method: as §2, §3

T1 sequence (P43220 24-463): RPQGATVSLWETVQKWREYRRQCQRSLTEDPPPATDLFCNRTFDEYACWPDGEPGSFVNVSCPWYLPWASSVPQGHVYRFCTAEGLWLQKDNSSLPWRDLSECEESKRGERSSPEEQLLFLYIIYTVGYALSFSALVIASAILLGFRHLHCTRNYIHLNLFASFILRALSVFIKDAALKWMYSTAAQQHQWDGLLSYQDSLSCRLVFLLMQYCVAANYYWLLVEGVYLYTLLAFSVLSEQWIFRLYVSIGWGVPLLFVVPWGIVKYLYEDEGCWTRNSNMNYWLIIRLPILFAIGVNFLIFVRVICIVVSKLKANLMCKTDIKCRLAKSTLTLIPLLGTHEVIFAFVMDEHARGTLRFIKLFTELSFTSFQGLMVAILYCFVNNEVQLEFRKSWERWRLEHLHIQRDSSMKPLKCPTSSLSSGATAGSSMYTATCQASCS

urinary albumin:creatinine ratio (C57BL/6J DIO mice [1]): likewise not changed | GLP-1R-mediated Gαs recruitment (hGLP-1R [4]): had no effect | cAMP production (hGLP-1R [6]): had no effect | GLP-1R internalization (hGLP-1R [7]): had no effect
SMILES: CCO[C@@H](Cc1ccc(OCCc2ccc(OS(C)(=O)=O)cc2)cc1)C(=O)O [tesaglitazar, (S)-2-ethoxy-3-(4-(4-((methylsulfonyl)oxy)phenethoxy)phenyl) propanoic acid]
blood glucose (C57BL/6J DIO mice [2]; DIO mice, Figure 2e, individual mice): 110 mg/dL and 133 mg/dL and 143 mg/dL and 112 mg/dL and 107 mg/dL and 150 mg/dL and 108 mg/dL | insulin (C57BL/6J DIO mice [2]; DIO mice, Figure 2f, individual mice): 1.06 ng/mL and 1.72 ng/mL and 0.73 ng/mL and 1.32 ng/mL and 2.56 ng/mL and 2.63 ng/mL and 1.88 ng/mL and 1.65 ng/mL | HOMA IR (C57BL/6J DIO mice [2]; animal 1 of the group): 9.08 | HOMA IR (C57BL/6J DIO mice [2]; animal 2 of the group): 17.60 | HOMA IR (C57BL/6J DIO mice [2]; animal 3 of the group): 17.24 | HOMA IR (C57BL/6J DIO mice [2]; animal 4 of the group): 17.30 | HOMA IR (C57BL/6J DIO mice [2]; animal 5 of the group): 10.92 | HOMA IR (C57BL/6J DIO mice [2]; animal 6 of the group): 7.15 | HOMA IR (C57BL/6J DIO mice [2]; animal 7 of the group): 14.05 | HOMA IR (C57BL/6J DIO mice [2]; animal 8 of the group): 6.44 | delta Fat mass (%) (C57BL/6J DIO mice [3]; Figure 2c, sheet notes an outlier based on grubbs test): -21.91% and -19.00% and -17.53% and -14.42% and -13.51% and -9.80% and -21.20% and -17.11% | delta lean mass (%) (C57BL/6J DIO mice [3]; Figure 2d): -3.73% and -4.62% and -4.21% and -6.43% and -3.83% and -4.53% and -3.02% and -3.39% | AUC (C57BL/6J DIO mice [5]; DIO mice, Figure 2h, AUC of the insulin tolerance test, individual mice, one conjugate mouse missinjected): 78.83 and 85.05 and 79.73 and 58.88 and 108.1 and 99.38 and 88.2 and 80.48 | AOC (C57BL/6J DIO mice [5]; animal 1 of the group): 151.5 | AOC (C57BL/6J DIO mice [5]; animal 2 of the group): 33 | AOC (C57BL/6J DIO mice [5]; animal 3 of the group): 29.64 | AOC (C57BL/6J DIO mice [5]; animal 4 of the group): 82.26 | AOC (C57BL/6J DIO mice [5]; animal 5 of the group): 109.5 | AOC (C57BL/6J DIO mice [5]; animal 6 of the group): 165 | AOC (C57BL/6J DIO mice [5]; animal 7 of the group): 167 | AOC (C57BL/6J DIO mice [5]; animal 8 of the group): 172 | AOC (DIO mice; 10 nmol/kg): 602.5 and 1138 and 938 and 739 and 687.5 and 514.5 and 579.5 and 713.5 | AOC (DIO mice; 100 nmol/kg): 808 and 562 and 500.5 and 764.5 and 734.5 and 596.5 and 539.5 and 745.5 | i.p. glucose tolerance (DIO mice; weight-matched DIO mice, single bolus 10 and 100 nmol kg−1, GTT 6 h after dose, Fig. 3a,b, in words): acutely worsened i.p. glucose tolerance | cAMP production (hGLP-1R [8]): had no effect

Reference: publication PMC9398908, “GLP-1-mediated delivery of tesaglitazar improves obesity and glucose metabolism in male mice” (Nature Metabolism, 2022)
